Laboratory results from patent publication US20110144156A1, “A3 ADENOSINE RECEPTOR ALLOSTERIC MODULATORS” (UNIVERSITEIT LEIDEN, priority 2008, published 2011).

Experiments:
[1] = target: T1, human A3ARs (Homo sapiens, UniProt P0DMS8); experiment: Dissociation kinetics of [125I]I-AB-MECA from human A3ARs (allosteric effect); conditions: 10 μM test compound; binding after 1.5 or 2 hours of dissociation, control without modulator set at 100%; brackets = result of each of two assays; read-out: hA3ARAg Dissociation at 10 μM
T1 construct: expressed in transfected cells; host or cells: CHO (Chinese hamster ovary) cells; membrane preparation
T1 sequence (P0DMS8 1-318): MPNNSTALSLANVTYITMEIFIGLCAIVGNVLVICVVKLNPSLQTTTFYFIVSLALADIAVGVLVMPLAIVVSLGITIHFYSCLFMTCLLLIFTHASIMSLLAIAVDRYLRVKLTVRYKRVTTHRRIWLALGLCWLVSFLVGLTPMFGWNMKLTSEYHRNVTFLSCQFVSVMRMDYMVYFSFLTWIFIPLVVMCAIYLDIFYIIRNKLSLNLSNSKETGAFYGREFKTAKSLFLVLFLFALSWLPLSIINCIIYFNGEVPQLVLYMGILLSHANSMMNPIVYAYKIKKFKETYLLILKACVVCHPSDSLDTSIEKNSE
Description: (§1) CHO (Chinese hamster ovary) cells expressing the recombinant human A3 receptors were cultured in DMEM and F12 (1:1) supplemented with 10% fetal bovine serum, 100 units/ml penicillin, 100 μg/ml streptomycin and 2 μmol/ml glutamine. Cells were harvested by trypsinization. After homogenization and suspension, cells were centrifuged at 500 g for 10 min, and the pellet was re-suspended in 50 mM Tris.HCl buffer (pH 7.4) containing 10 mM MgCl2. The suspension was homogenized with an electric homogenizer for 10 sec, and was then re-centrifuged at 20,000 g for […] at 4° C. The resultant pellets were resuspended in buffer in the presence of 3 Units/mL adenosine deaminase, and the suspension was stored at −80° C. until the binding experiments. The protein concentration was measured using the Bradford assay.
The dissociation of [^125I]I-AB-MECA was measured as follows. Membranes (20 μg) were pre-incubated at 25° C. with 0.5 nM [^125I]I-AB-MECA, in a total volume of 100 μl of Tris-HCl buffer (50 mM, pH 8.0) containing 10 mM MgCl2, and 1 mM EDTA for 60 min. The dissociation was then initiated by the addition of 3 μM Cl-IB-MECA with or without allosteric modulators. The time course of dissociation of total binding was measured by rapid filtration at appropriate time intervals. Nonspecific binding was measured after 60-min incubation in the presence of 3 μM Cl-IB-MECA. Further assay was as described above.

[2] = target: T1, human A3ARs; experiment: Competitive binding assay to the human A3 AR with [125I]I-AB-MECA; conditions: 1 h, 10 μM test compound; [125I]I-AB-MECA radioligand; CHO cell membranes expressing human A3AR; brackets = individual assays; read-out: % displacement at 10 μM (hA3AR)
Description: as §1
Each tube in the competitive binding assay contained 100 μl membrane suspension (20 μg protein), 50 μl [^125I]I-AB-MECA (0.5 nM), and 50 μl of increasing concentrations of the test modulators in Tris.HCl buffer (50 mM, pH 8.0) containing 10 mM MgCl2, 1 mM EDTA. Nonspecific binding was determined using 10 μM of 5′-N-ethylcarboxamidoadenosine in the buffer. The mixtures were incubated at 25° C. for 60 min. Binding reactions were terminated by filtration through Whatman GF/B filters under reduced pressure using a MT-24 cell harvester (Brandell, Gaithersburgh, Md., USA). Filters were washed three times with 9 mL ice-cold buffer. Radioactivity was determined in a Beckman 5500B γ-counter.
Binding parameters were calculated using Prism 5.0 software (GraphPAD, San Diego, Calif., USA). IC50 values obtained from competition curves were converted to Ki values using the Cheng-Prusoff equation. Data were expressed as mean±standard error.

Structure (SMILES) | activity at 10 µM [1] [%] | inhibition at 10 µM [2] [%]
O=C(Nc1cc(Nc2ccccc2)nc2ccccc12)C1CCCC1 [Compound 16, N-(2-anilinoquinolin-4-yl)cyclopentanecarboxamide] | 145 | 61
O=C(Nc1cc(NCc2ccccc2)nc2ccccc12)C1CCCC1 [Compound 18, N-[2-(benzylamino)quinolin-4-yl]cyclopentanecarboxamide] | 107 | 28
COc1ccc(Nc2cc(NC(=O)C3CCCC3)c3ccccc3n2)cc1 [Compound 21, N-{2-[(4-methoxyphenyl)amino]quinolin-4-yl}cyclopentanecarboxamide] | 134 | 35
O=C(Nc1cc(NC2CCCC2)nc2ccccc12)C1CCCC1 [Compound 23, N-[2-(cyclopentylamino)quinolin-4-yl]cyclopentanecarboxamide] | 114 | 14
O=C(Nc1cc(Nc2ccccc2)nc2ccccc12)c1ccccc1 [Compound 29, N-(2-anilinoquinolin-4-yl)benzamide] | 100 | 76
O=C(Nc1cc(Nc2ccc(Cl)c(Cl)c2)nc2ccccc12)c1ccccc1 [Compound 30, N-{2-[(3,4-dichloro-phenyl)amino]quinolin-4-yl}benzamide] | 112 | 37
O=C(Nc1cc(Nc2ccccc2)nc2ccccc12)c1ccco1 [Compound 31, N-(2-anilinoquinolin-4-yl)-2-furamide] | 100 | 60
O=C(Nc1cc(Nc2ccc(Cl)c(Cl)c2)nc2ccccc12)c1ccco1 [Compound 32, N-{2-[(3,4-dichlorophenyl)amino]quinolin-4-yl}-2-furamide] | 96 | 13
O=C(Nc1cc(Nc2ccccc2)nc2ccccc12)C1CCC1 [Compound 33, N-(2-anilinoquinolin-4-yl)cyclobutanecarboxamide] | 119 | 66

Next, values leading:

activity at 10 µM [1] [%] | inhibition at 10 µM [2] [%] | Structure (SMILES)
169 | 50 | O=C(Nc1cc(Nc2ccc(Cl)c(Cl)c2)nc2ccccc12)C1CCCC1 [Compound 17, N-{2-[(3,4-dichlorophenyl)amino]quinolin-4-yl}cyclopentanecarboxamide]
165 | 63 | Cc1ccc(Nc2cc(NC(=O)C3CCCC3)c3ccccc3n2)cc1 [Compound 19, N-{2-[(4-methylphenyl)amino]quinolin-4-yl}cyclopentanecarboxamide]
147 | 62 | O=C(Nc1cc(Nc2ccc3c(c2)CCC3)nc2ccccc12)C1CCCC1 [Compound 20, N-[2-(2,3-dihydro-1H-inden-5-ylamino)quinolin-4-yl]cyclopentanecarboxamide]
102 | 90 | O=C(Nc1cc(Nc2ccc3cn[nH]c3c2)nc2ccccc12)C1CCCC1 [Compound 24, N-[2-(1H-indazol-6-ylamino)quinolin-4-yl]cyclopentanecarboxamide]
≤ 249 |  | O=C(Nc1cc(Nc2ccc(Cl)c(Cl)c2)nc2ccccc12)C1CCCCC1 [Compound 26, N-{2-[(3,4-dichlorophenyl)amino]quinolin-4-yl}cyclohexanecarboxamide]
220 | 64 | Cc1ccc(Nc2cc(NC(=O)C3CCCCC3)c3ccccc3n2)cc1 [Compound 27, N-{2-[(4-methylphenyl)amino]quinolin-4-yl}cyclohexanecarboxamide]
 | < 50 | O=C(Nc1cc(Nc2ccc3c(c2)CCC3)nc2ccccc12)C1CCCCC1 [Compound 28, N-[2-(2,3-dihydro-1H-inden-5-ylamino)quinolin-4-yl]cyclohexanecarboxamide]
149 | 51 | O=C(Nc1cc(Nc2ccc(Cl)c(Cl)c2)nc2ccccc12)C1CCC1 [Compound 34, N-{2-[(3,4-dichlorophenyl)amino]quinolin-4-yl}cyclobutanecarboxamide]
